Patent publication US12070458B2, “Therapeutic agent composition and method of use, for treatment of mild congnitive impairment, depression, and psychological disorders” (priority 2018, dated 2024)
Residues, ends and D or L forms follow the SMILES beside them.

Legend:
[1] = tested on: BrdU positive cells in sub ventricular zone and dentate gyrus; test: Neurogenesis by BrdU co-administration (sub ventricular zone, dentate gyrus); assay type: in vivo, Wistar rats; conditions: 10 mg/kg i.p. in 0.1% RSA twice daily for 7 days, compared to sham injected
Procedure: Male Wistar rats weighing about 250-270 g (not newborn) were used. All animal experiments were conducted in agreement with national and international guidelines. Care was taken to minimize suffering for the animals. Animals were allowed to acclimatize for 1 week before start of the studies. Animals were housed under standardized conditions with normal tight-dark periods and in groups of five animals per cage. Animals had access to food and water ad libitum during the studies.
Three neurogenesis modulating agents, cPG, c(PG)3 and cGMeP were separately administered intraperitoneally to Male Wistar rats (N=10) at 10 mg/kg in Rat Serum Albumin (RSA). The negative control (n=12), the vehicle group was injected with saline (in 0.1% RSA). Bromodeoxyuridine (Brd1J; 50 mg/kg) was co-administrated together with the compounds. The intraperitoneally injections were given with a 12 hour interval for 7 days. Animals were perfused on day 8. The rats were kept at 12 hours light/dark regime. In perfusion, animals were perfused transcranially with 50 ml of ice cold phosphate buffered saline (PBS) and then 100 ml of 4% paraformaldehyde in PBS. Brains were fixed after removal in 4% paraformaldehyde in PBS for 24 hours at 4° C. at least 3 days before sectioning. The procedures of transcranial infusion consist the following steps: […]

[2] = tested on: cerebellar microexplants (P4); test: Glutamate induced neuronal death in cerebellar microexplants (P4); assay type: cell-based, Wistar rats; conditions: for neuron number compared to the normal control group: a further lower dose; for recovery from glutamate-induced neurotoxicity: lower doses 10-100 nM, simultaneously with glutamate
Procedure: Cerebellar Cell Culture Preparing and Coating of Cover Slips
Ten coverslips were placed into a large petri dish and washed in 70% alcohol for 5 minutes, then washed with Millipore H2O. The coverslips were air dried, then coated with Poly-D-Lysine (1 mg/ml stock solution in PBS, 90-100 μl) and incubated for 2 hours at 34° C.
Postnatal day 4 Wistar rats were used for the study. Rats were placed in ice for 1 minute, the heads were decapitated and the cerebellum removed on ice. Cerebellum tissue was placed in 1 ml of 0.65% glucose supplemented PBS (10 μl 65% stock D (+)glucose/1 ml PBS) in a large petri dish, chopped up into smaller sections and triturate with a 1 ml insulin syringe via a 23 G (0.4 mm) needle, and then squirted back into the glucose solution on the large petri dish. The tissue was sieved through (125 μm pore size gaze) and centrifuged (2 minutes at 60 g) two times for a medium exchange into serum-free BSA-supplemented START V medium (Biochrom). The second centrifugation step was done with 1 ml of START V medium. The microexplants were reconstituted into 500 μl of START V medium and put on ice.
Cultivation and Fixation of Cerebellar Cells
Two hours after PDL-coating, the slides were washed with Millipore H2O and air dried. Each slide was placed into a small 35 mm petri dish and 40 μl of START V/cell suspension added. The tissue was incubated for 2 hours at 34° C. (settlement period). START V-medium (1 ml) was then added to the petri dish and cultivated at 34° C./5% CO2/100% humidity for 48 hours. Cells were rinsed in PBS and then fixed for 2-3 minutes in increasing concentrations of paraformaldehyde (500 μl of 0.4% PFA was applied; then 1.2% PFA; then 3% PFA and finally 4% PFA—all fixation solutions contain 0.2% glutardialdehyde). Finally, the microexplants were rinsed in PBS.
(§1) 10 μl of toxin (L-glutamate-100 mM in Millipore water) was applied simultaneously with cPG (from bachem, 10 mM stock prepared in PBS and diluted to final concentrations between 1-100 nM) for Study 1. A delay in administration of cPG at 6 hours after glutamate treatment was performed for Study 2.
as §1, with “cyclic(tri(prolylglycyl)) (which was obtained from NeuroBiomed, San Jose, California),” for “cPG (from bachem,”, “cyclic(tri(prolylglycyl))” for “cPG”
as §1, with “cyclic Glycyl-2-Methyl Proline (obtained NeuroBiomed, San Jose California),” for “cPG (from bachem,”

[3] = 1-100 nM given 6 hours after the glutamate treatment, compared to vehicle
[4] = administered simultaneously with glutamate, 1-100 nM, glutamate alone 85% loss of neurons

SMILES | number of newborn cells (BrdU positive) in sub ventricular zone and dentate gyrus [1] | recovery from glutamate induced neurotoxicity [2, 3] | neuron number compared to the normal control group [2] | glutamate induced neuronal death [2, 4] | recovery from glutamate-induced neurotoxicity [2] | improvement, recovery from glutamate induced neurotoxicity [2, 3] | reduction of glutamate induced neuronal death [2, 4] [%]
O=C1NCC(=O)N2CCC[C@@H]12 [cPG, cyclic Prolyl Glycine] | significant increase | significantly recovery | significant increase | significantly reduced | significant recovery | – | –
O=C1NCC(=O)N2CCC[C@H]2C(=O)NCC(=O)N2CCC[C@H]2C(=O)NCC(=O)N2CCCC12 (stereo partly drawn) [c(PG)3, cyclic (glycyl-L-prolylglycyl-L-prolylglycyl-L-prolyl)] (HELM PEPTIDE1{G.P.G.P.G.[O=C(C1CCCN1[*:1])[*:2]]}$PEPTIDE1,PEPTIDE1,1:R1-6:R2$$$V2.0) | significant increase | – | significant increase | – | significant recovery | approximately 43% | 57
